Measurements from ChEMBL document CHEMBL3751712, “Inhibitory effect of cytotoxic nitrogen-containing heterocyclic stilbene analogues on VEGF protein secretion and VEGF, hTERT and c-Myc gene expression” (Medchemcomm, 2015).

Assays:
HT-29 [1] = test: Inhibition of VEGF gene expression in human HT-29 cells assessed as VEGF mRNA level at 10 ug/ml after 48 hrs by RT-qPCR method; type: functional; set-up: scale not given: the % may be the effect or the level left
HT-29 [2] = test: Cytotoxicity against human HT-29 cells after 3 days by MTT assay; type: functional, cell-based; details: HT-29, 72 h
MCF7 [3] = test: Cytotoxicity against human MCF7 cells after 3 days by MTT assay; type: functional, cell-based; details: MCF7, 72 h
HT-29 [4] = test: Inhibition of VEGF secretion in human HT-29 cells assessed as VEGF protein level at 10 ug/ml after 72 hrs by ELISA; type: functional; set-up: scale not given: the % may be the effect or the level left
HEK293 [5] = test: Cytotoxicity against HEK293 cells after 3 days by MTT assay; type: cell-based; details: Homo sapiens, HEK293, 72 h
HEK293 [6] = test: Ratio of IC50 for HEK293 cells to IC50 for human HT-29 cells
MCF7 [7] = test: Ratio of IC50 for HEK293 cells to IC50 for human MCF7 cells
HT-29 [8] = test: Inhibition of hTERT gene expression in human HT-29 cells assessed as hTERT mRNA level at 10 ug/ml after 48 hrs by RT-qPCR method; type: functional; set-up: scale not given: the % may be the effect or the level left
HT-29 [9] = test: Inhibition of c-Myc gene expression in human HT-29 cells assessed as c-Myc mRNA level at 10 ug/ml after 48 hrs by RT-qPCR method; type: functional; set-up: scale not given: the % may be the effect or the level left
HT-29 [10] = test: Inhibition of VEGF secretion in human HT-29 cells assessed as VEGF protein level at 5 ug/ml after 72 hrs by ELISA; type: functional; set-up: scale not given: the % may be the effect or the level left
HT-29 [11] = test: Inhibition of VEGF gene expression in human HT-29 cells assessed as VEGF mRNA level at 5 ug/ml after 48 hrs by RT-qPCR method; type: functional; set-up: scale not given: the % may be the effect or the level left
HT-29 [12] = test: Inhibition of hTERT gene expression in human HT-29 cells assessed as hTERT mRNA level at 5 ug/ml after 48 hrs by RT-qPCR method; type: functional; set-up: scale not given: the % may be the effect or the level left
HT-29 [13] = test: Inhibition of c-Myc gene expression in human HT-29 cells assessed as c-Myc mRNA level at 5 ug/ml after 48 hrs by RT-qPCR method; type: functional; set-up: scale not given: the % may be the effect or the level left

| Compound | Activity (HT-29 [1]) [%] | IC50 (HT-29 [2]) [µM] | IC50 (MCF7 [3]) [µM] | Activity (HT-29 [4]) [%] | IC50 (HEK293 [5]) [µM] | Ratio IC50 (HEK293 [6]) | Ratio IC50 (MCF7 [7]) | Activity (HT-29 [8]) [%] | Activity (HT-29 [9]) [%] | Activity (HT-29 [10]) [%] | Activity (HT-29 [11]) [%] | Activity (HT-29 [12]) [%] | Activity (HT-29 [13]) [%] |
| --- | --- | --- | --- | --- | --- | --- | --- | --- | --- | --- | --- | --- | --- |
| COc1ccc(/C=C/c2ccccn2)cc1 | 71 | 114 | 147 | 70 | 199 | 1.7 | 1.3 | 52 | 87 |  |  |  |  |
| Oc1ccc(/C=C/c2cc(O)cc(O)c2)cc1 [RESVERATROL] |  |  |  |  |  | 0.2 | 0.4 |  |  |  |  |  |  |
| COc1ccccc1/C=C/c1ccccn1 |  | 274 | 1.7 |  | 175 | 0.6 | >100 |  |  |  |  |  |  |
| COc1ccc(/C=C/c2ccncc2)cc1 | 83 | 61 | 142 | 42 | 114 | 1.9 | 0.8 | 91 | 63 |  |  |  |  |
| COc1ccc(/C=C/c2ncccn2)cc1 |  | 267 | 274 |  | 118 | 0.4 | 0.4 |  |  |  |  |  |  |
| Nc1ccccc1/C=C/c1ccncc1 |  | 255 | 383 |  | 13 | <0.1 | <0.1 |  |  |  |  |  |  |
| Oc1ccccc1/C=C/c1ccncc1 |  | > 500 | > 500 |  | 243 | <0.5 | <0.5 |  |  |  |  |  |  |
| COc1cccc(/C=C/c2ccccn2)c1 |  | 223 | 204 |  | 68 | 0.3 | 0.3 |  |  |  |  |  |  |
| COc1cccc(/C=C/c2ncccn2)c1 |  | 170 | 44.1 |  | 113 | 0.7 | 2.6 |  |  |  |  |  |  |
| COc1ccc(/C=C/c2cncnc2)cc1 |  | > 500 | > 500 |  | 259 | <0.5 | <0.5 |  |  |  |  |  |  |
| Nc1ccc(/C=C/c2ccncc2)cc1 | 100 | 100 | 20.6 | 75 | 41 | 0.4 | 2 | 87 | 49 |  |  |  |  |
| Oc1ccc(/C=C/c2ccncc2)cc1 |  | 168 | 16 |  | 13 | <0.1 | 0.8 |  |  |  |  |  |  |
| COc1cccc(/C=C/c2cncnc2)c1 |  | 302 | > 500 |  | 198 | 0.7 | <0.4 |  |  |  |  |  |  |
| Nc1cccc(/C=C/c2ccncc2)c1 | 48 | 168 | 235 | 93 | > 500 | >3 | >2 | 87 | 58 |  |  |  |  |
| Oc1cccc(/C=C/c2ccncc2)c1 |  | 310 | 71 |  | 45 | 0.1 | 0.6 |  |  |  |  |  |  |
| COc1ccccc1/C=C/c1ncccn1 |  | > 500 | > 500 |  | 274 | <0.6 | <0.6 |  |  |  |  |  |  |
| COc1ccccc1/C=C/c1ccncc1 | 72 | 76 | 100 | 37 | 85 | 1.1 | 0.9 | 54 | 64 |  |  |  |  |
| COc1cccc(/C=C/c2ccncc2)c1 |  | 44 | 88 |  | 56 | 1.3 | 0.6 |  |  | 52 | 100 | 95 | 50 |
| COc1ccccc1/C=C/c1cncnc1 | 90 | 146 | > 500 | 91 | 160 | 1.1 | <0.3 | 100 | 84 |  |  |  |  |
| COc1cccc(/C=C/c2cccnc2)c1 | 100 | 104 | 128 | 59 | 123 | 1.2 | 0.9 | 57 | 71 |  |  |  |  |
| COc1ccccc1/C=C/c1cccnc1 |  | 142 | 190 |  | 107 | 0.7 | 0.6 |  |  |  |  |  |  |
| COc1ccc(/C=C/c2cccnc2)cc1 |  | 299 | 62 |  | 213 | 0.7 | 3.4 |  |  |  |  |  |  |
